# Assay results as given in patent EP0257992A2, “Prophylactic and therapeutic agents for cerebral ischemia” (YAMANOUCHI PHARMACEUTICAL CO. LTD., priority 1986, dated 1988).
# Marks after values point to notes of the source that are not given here.
# Assays:
# low oxygen-loaded mice = assay: Survival time of low oxygen-loaded mice; assay type: in vivo, Male ICR mice; conditions: 300 mg/kg single dose 10 minutes before inhalation of 95.3% nitrogen / 4.7% oxygen; 14 animals; control 201±18
# Description: Male ICR mice (weighing about 30 g) were put in a glass vessel having a volume of 2 liters, equipped with an inhalation opening and an exhaust opening. A gaseous mixture of 95.3% nitrogen and 4.7% oxygen was blown into the vessel at 5 ℓ/min. to cause a low oxygen state, and the time for mice to die was measured. The ester was intravenously administered 10 minutes before the inhalation of the gaseous mixture. Only physiological saline was given to the control group.
# (1) mg/kg i.p.: amount of a single dose given. (2) Unit: second * 5%is a significant difference in death rate as compared to the control group (group given physiological saline).
# [1] = test system: rats ligated at carotids (both sides); assay: Death of rats ligated at both carotids (cerebral ischemia); assay type: in vivo, male Wistar rats; conditions: 300 mg/kg i.p. per single dose, given immediately after and 1 and 2 hours after ligation; dead animals 24 hours after ligation; 24 animals; control 21 dead
# Description: Both carotids of male Wistar rats (weighting about 300 g) were permanently ligated to cause a cerebral ischemic state. The rats suffered neural conditions (paralysis or spasm of the limbs, etc.) and most of them died in 24 hours. The influence of the ester on death 24 hours afer ligation was examined. The ester was intraperitoneally administered immediately after the ligation, and 1 and 2 hours after the ligation. Physiological saline alone was given to the control group.
# (1) mg/kg i.p.: amount of a single dose given. (2) Number of dead animals 24 hours after ligation *5% is a significant difference in death rate compared to the control group (group given physiological saline.
# autoblood-injected rats = assay: Neural condition (duration of forced posture) of autoblood-injected rats; assay type: in vivo, Male Wistar rats; conditions: 300 mg/kg i.p. once a day, 30 minutes after administration
# Description: (§1) Male Wistar rats (weighing about 300 g) were anesthesized with pentobarbital (40 mg/kg i.e.) and fixed on a brain normal position fixing device. In order to form hematoma in the brain, 0.2 cc of autoblood previously collected from the tail vein was injected in the site of the brain at 4 mm to the right from the arrow suture, at 2 mm to the tail side from the crown suture and at 4 mm of the brain surface. The left rear paw was forced onto a stand having a height of 4.5 cm and the time from which the forced posture was maintained was measured and evaluated as neural condition. The ester was intraperitoneally administered immediately after the injection of autoblood and then once a day. Physiological saline alone was given to the control group. The measurement of neural condition was made after the operation daily for 4 consecutive days, 30 minutes after administration.
# (1) mg/kg i.p.: amount of a single dose given. (2) Unit: second (3) Number of days after the operation. *5% is a significant difference in duration as compared to the control group (group given physiological saline). **1% is a significant difference in duration as compared to the control group. Number of animals: 10 - 11.
# [2] = test system: Malonedealdehyde in the Brain of Rats Injected with Autoblood; assay: Malonedealdehyde (lipid peroxide) content in the brain of autoblood-injected rats; assay type: in vivo, Male Wistar rats; conditions: 300 mg/kg i.p. once a day; right hemispherical brain on the fourth day after the operation; control 168±15
# Description: as §1, with “The measurement of neural condition was made after the operation daily for 4 consecutive days, 30 minutes after administration.” left out
# Immediately after the observation of the neural condition on the fourth day of the operation, the head of each rat was cut off and the right hemispherical brain was isolated. The lipid peroxides in the brain were fluorometrically determined by forming about 10% of a homogenate with 1.15% potassium chloride, taking 0.1 ml of the homogenate and measuring using malonedealdehyde as a standard substance according to Yagi's method.
# Futher in Table IV are shown the results of the effect on malonedealdehyde in the brain. The results were evaluated by the Student's t-test. […]
# [3] = Acute toxicity (LD50) on intraperitoneal injection into mice; conditions: mouse, in vivo, ip, read-out: acute toxicity (LD₅₀)
# Description: The isopropyl ester (I) and salts have an acute toxicity (LD₅₀) of approximately 5.3 g/kg on intraperitoneal injection into mice.
compound,measurement,setting,value
"CC(C)OC(=O)CNC(=O)[C@H](CS)NC(=O)CC[C@H](N)C(=O)O [Glutathione monoisopropyl ester, isopropyl γ-L-glutamyl-L-cysteinyl glycinate]",Survival Time,low oxygen-loaded mice,262 ± 22 s
same,Number of Dead Animals,[1],15*
same,"Duration, Day 1","autoblood-injected rats; Day 1 after the operation, control 42±10",11 ± 5 s
same,"Duration, Day 2","autoblood-injected rats; Day 2 after the operation, control 53±12",22 ± 11 s
same,"Duration, Day 3","autoblood-injected rats; Day 3 after the operation, control 43±11",8 ± 1 s
same,"Duration, Day 4","autoblood-injected rats; Day 4 after the operation, control 31±10",7 ± 1 s
same,Content of Malonedealdehyde,[2],97±20 nmol/g wet weight
same,LD50,[3],~5300 mg/kg
